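Step 1: Grow cells in 96-well plates. Step 2: Expose to compound for 48 hours at 5 concentrations. Step 3: Interpolate endpoints linearly; if unreached, use highest concentration. The concentration for full growth arrest is given as TGI.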
Columns and labels:
Experiment in all cases: DTP human tumour cell line panel, 48 h
KM20L2 colon = tested on: KM20L2 colon
NCI-H460 lung = tested on: NCI-H460 lung
SW-620 colon = tested on: SW-620 colon
KM12 colon = tested on: KM12 colon
DMS 273 small cell lung = tested on: DMS 273 small cell lung
SK-MEL-28 melanoma = tested on: SK-MEL-28 melanoma
U251 CNS = tested on: U251 CNS
OVCAR-8 ovarian = tested on: OVCAR-8 ovarian
COLO 205 colon = tested on: COLO 205 colon
IGROV1 ovarian = tested on: IGROV1 ovarian
HCT-116 colon = tested on: HCT-116 colon
CAKI-1 renal = tested on: CAKI-1 renal
LOX IMVI melanoma = tested on: LOX IMVI melanoma
K-562 leukemia = tested on: K-562 leukemia
EKVX NSCLC = tested on: EKVX NSCLC
M19-MEL melanoma = tested on: M19-MEL melanoma
SNB-75 CNS = tested on: SNB-75 CNS
DLD-1 colon = tested on: DLD-1 colon
HOP-18 NSCLC = tested on: HOP-18 NSCLC
SNB-78 CNS = tested on: SNB-78 CNS
HCT-15 colon = tested on: HCT-15 colon
SK-MEL-2 melanoma = tested on: SK-MEL-2 melanoma
A498 renal = tested on: A498 renal
SK-MEL-5 melanoma = tested on: SK-MEL-5 melanoma
XF 498 CNS = tested on: XF 498 CNS
TK-10 renal = tested on: TK-10 renal
SK-OV-3 ovarian = tested on: SK-OV-3 ovarian
SF-268 CNS = tested on: SF-268 CNS
LXFL 529 NSCLC = tested on: LXFL 529 NSCLC
RXF 393 renal = tested on: RXF 393 renal
SF-295 CNS = tested on: SF-295 CNS
HOP-92 NSCLC = tested on: HOP-92 NSCLC
HL-60(TB) leukemia = tested on: HL-60(TB) leukemia
NCI-H522 lung = tested on: NCI-H522 lung
HT29 colon = tested on: HT29 colon
SF-539 CNS = tested on: SF-539 CNS
RPMI-8226 leukemia = tested on: RPMI-8226 leukemia
SN12C renal = tested on: SN12C renal
UO-31 renal = tested on: UO-31 renal
DMS 114 small cell lung = tested on: DMS 114 small cell lung
HOP-62 NSCLC = tested on: HOP-62 NSCLC
786-0 renal = tested on: 786-0 renal
M14 melanoma = tested on: M14 melanoma
OVCAR-5 ovarian = tested on: OVCAR-5 ovarian
OVCAR-3 ovarian = tested on: OVCAR-3 ovarian
CCRF-CEM leukemia = tested on: CCRF-CEM leukemia
OVCAR-4 ovarian = tested on: OVCAR-4 ovarian
A549 NSCLC = tested on: A549 NSCLC
MALME-3M melanoma = tested on: MALME-3M melanoma
ACHN renal = tested on: ACHN renal
NCI-H226 lung = tested on: NCI-H226 lung
RXF-631 renal = tested on: RXF-631 renal
UACC-62 melanoma = tested on: UACC-62 melanoma
UACC-257 melanoma = tested on: UACC-257 melanoma
SR leukemia = tested on: SR leukemia
NCI-H23 lung = tested on: NCI-H23 lung
MOLT-4 leukemia = tested on: MOLT-4 leukemia
SNB-19 CNS = tested on: SNB-19 CNS
HCC-2998 colon = tested on: HCC-2998 colon

With `Nc1ccnc(=O)[nH]1` the TGI (KM20L2 colon) was > 100 µM, the TGI (NCI-H460 lung) was > 100 µM and the TGI (SW-620 colon) was > 100 µM. The TGI (KM12 colon) was > 100 µM, the TGI (DMS 273 small cell lung) was > 100 µM and the TGI (SK-MEL-28 melanoma) was > 100 µM. The TGI (U251 CNS) was > 100 µM, the TGI (OVCAR-8 ovarian) was > 100 µM and the TGI (COLO 205 colon) was > 100 µM. For the same compound, the TGI (IGROV1 ovarian) was > 100 µM, the TGI (HCT-116 colon) was > 100 µM and the TGI (CAKI-1 renal) was > 100 µM. For the same compound, the TGI (LOX IMVI melanoma) was > 100 µM, the TGI (K-562 leukemia) was > 100 µM and the TGI (EKVX NSCLC) was > 100 µM. For the same compound, the TGI (M19-MEL melanoma) was > 100 µM, the TGI (SNB-75 CNS) was > 100 µM and the TGI (DLD-1 colon) was > 100 µM. The TGI (HOP-18 NSCLC) was > 100 µM, the TGI (SNB-78 CNS) was > 100 µM and the TGI (HCT-15 colon) was > 100 µM. The TGI (SK-MEL-2 melanoma) was > 100 µM, the TGI (A498 renal) was > 100 µM and the TGI (SK-MEL-5 melanoma) was > 100 µM. For the same compound, the TGI (XF 498 CNS) was > 100 µM, the TGI (TK-10 renal) was > 100 µM and the TGI (SK-OV-3 ovarian) was > 100 µM. The TGI (SF-268 CNS) was > 100 µM, the TGI (LXFL 529 NSCLC) was > 100 µM and the TGI (RXF 393 renal) was > 100 µM. For the same compound, the TGI (SF-295 CNS) was > 100 µM, the TGI (HOP-92 NSCLC) was > 100 µM and the TGI (HL-60(TB) leukemia) was > 100 µM. For the same compound, the TGI (NCI-H522 lung) was > 100 µM, the TGI (HT29 colon) was > 100 µM and the TGI (SF-539 CNS) was > 100 µM. The TGI (RPMI-8226 leukemia) was > 100 µM, the TGI (SN12C renal) was > 100 µM and the TGI (UO-31 renal) was > 100 µM. The TGI (DMS 114 small cell lung) was > 100 µM, the TGI (HOP-62 NSCLC) was > 100 µM and the TGI (786-0 renal) was > 100 µM. For the same compound, the TGI (M14 melanoma) was > 100 µM, the TGI (OVCAR-5 ovarian) was > 100 µM and the TGI (OVCAR-3 ovarian) was > 100 µM. The TGI (CCRF-CEM leukemia) was > 100 µM, the TGI (OVCAR-4 ovarian) was > 100 µM and the TGI (A549 NSCLC) was > 100 µM. For the same compound, the TGI (MALME-3M melanoma) was > 100 µM, the TGI (ACHN renal) was > 100 µM and the TGI (NCI-H226 lung) was > 100 µM. For the same compound, the TGI (RXF-631 renal) was > 100 µM, the TGI (UACC-62 melanoma) was > 100 µM and the TGI (UACC-257 melanoma) was > 100 µM.
`O=C(c1cccs1)N(C(=S)N1CCN(c2ccccn2)CC1)c1ccccc1` was tested, and the TGI (KM20L2 colon) was > 100 µM, the TGI (NCI-H460 lung) was > 100 µM and the TGI (SW-620 colon) was > 100 µM. The TGI (KM12 colon) was > 100 µM, the TGI (DMS 273 small cell lung) was > 100 µM and the TGI (SK-MEL-28 melanoma) was > 100 µM. The TGI (U251 CNS) was > 100 µM, the TGI (OVCAR-8 ovarian) was > 100 µM and the TGI (COLO 205 colon) was > 100 µM. For the same compound, the TGI (IGROV1 ovarian) was > 100 µM, the TGI (HCT-116 colon) was > 100 µM and the TGI (CAKI-1 renal) was > 100 µM. The TGI (LOX IMVI melanoma) was > 100 µM, the TGI (K-562 leukemia) was > 100 µM and the TGI (M19-MEL melanoma) was > 100 µM. The TGI (SNB-75 CNS) was > 100 µM, the TGI (DLD-1 colon) was > 100 µM and the TGI (HOP-18 NSCLC) was > 100 µM. The TGI (SNB-78 CNS) was > 100 µM, the TGI (HCT-15 colon) was > 100 µM and the TGI (SK-MEL-2 melanoma) was > 100 µM. For the same compound, the TGI (SK-MEL-5 melanoma) was > 100 µM, the TGI (XF 498 CNS) was 84 µM and the TGI (TK-10 renal) was > 100 µM. The TGI (SK-OV-3 ovarian) was > 100 µM, the TGI (SF-268 CNS) was > 100 µM and the TGI (LXFL 529 NSCLC) was > 100 µM. The TGI (RXF 393 renal) was > 100 µM, the TGI (SR leukemia) was > 100 µM and the TGI (NCI-H23 lung) was > 100 µM. The TGI (SF-295 CNS) was > 100 µM, the TGI (HOP-92 NSCLC) was > 100 µM and the TGI (HL-60(TB) leukemia) was > 100 µM. For the same compound, the TGI (NCI-H522 lung) was > 100 µM, the TGI (HT29 colon) was > 100 µM and the TGI (SF-539 CNS) was > 100 µM. For the same compound, the TGI (MOLT-4 leukemia) was > 100 µM, the TGI (RPMI-8226 leukemia) was > 100 µM and the TGI (SN12C renal) was > 100 µM. For the same compound, the TGI (UO-31 renal) was > 100 µM, the TGI (DMS 114 small cell lung) was > 100 µM and the TGI (HOP-62 NSCLC) was > 100 µM. The TGI (786-0 renal) was > 100 µM, the TGI (M14 melanoma) was > 100 µM and the TGI (OVCAR-5 ovarian) was > 100 µM. For the same compound, the TGI (OVCAR-3 ovarian) was > 100 µM, the TGI (CCRF-CEM leukemia) was > 100 µM and the TGI (OVCAR-4 ovarian) was > 100 µM. For the same compound, the TGI (SNB-19 CNS) was > 100 µM, the TGI (A549 NSCLC) was > 100 µM and the TGI (MALME-3M melanoma) was > 100 µM. The TGI (ACHN renal) was > 100 µM, the TGI (NCI-H226 lung) was 84.4 µM and the TGI (UACC-62 melanoma) was > 100 µM. For the same compound, the TGI (UACC-257 melanoma) was > 100 µM.
In the case of `COc1ccc(Br)c(N/N=C2\CCCNC2=O)c1`, the TGI (KM20L2 colon) is reported as > 100 µM, the TGI (NCI-H460 lung) is reported as > 100 µM and the TGI (SW-620 colon) is reported as > 100 µM. The TGI (KM12 colon) was > 100 µM, the TGI (DMS 273 small cell lung) was > 100 µM and the TGI (SK-MEL-28 melanoma) was > 100 µM. For the same compound, the TGI (U251 CNS) was > 100 µM, the TGI (OVCAR-8 ovarian) was > 100 µM and the TGI (COLO 205 colon) was > 100 µM. The TGI (IGROV1 ovarian) was > 100 µM, the TGI (HCT-116 colon) was > 100 µM and the TGI (HCC-2998 colon) was > 100 µM. For the same compound, the TGI (CAKI-1 renal) was 91.8 µM, the TGI (LOX IMVI melanoma) was > 100 µM and the TGI (K-562 leukemia) was > 100 µM. For the same compound, the TGI (EKVX NSCLC) was 78.6 µM, the TGI (M19-MEL melanoma) was > 100 µM and the TGI (SNB-75 CNS) was > 100 µM. For the same compound, the TGI (DLD-1 colon) was > 100 µM, the TGI (HOP-18 NSCLC) was > 100 µM and the TGI (SNB-78 CNS) was > 100 µM. For the same compound, the TGI (HCT-15 colon) was > 100 µM, the TGI (SK-MEL-2 melanoma) was > 100 µM and the TGI (SK-MEL-5 melanoma) was > 100 µM. For the same compound, the TGI (XF 498 CNS) was > 100 µM, the TGI (TK-10 renal) was > 100 µM and the TGI (SK-OV-3 ovarian) was > 100 µM. For the same compound, the TGI (LXFL 529 NSCLC) was > 100 µM, the TGI (SR leukemia) was > 100 µM and the TGI (NCI-H23 lung) was > 100 µM. The TGI (SF-295 CNS) was > 100 µM, the TGI (HOP-92 NSCLC) was > 100 µM and the TGI (HL-60(TB) leukemia) was > 100 µM. For the same compound, the TGI (NCI-H522 lung) was > 100 µM, the TGI (HT29 colon) was > 100 µM and the TGI (SF-539 CNS) was > 100 µM. The TGI (MOLT-4 leukemia) was > 100 µM, the TGI (RPMI-8226 leukemia) was > 100 µM and the TGI (SN12C renal) was > 100 µM. For the same compound, the TGI (UO-31 renal) was > 100 µM, the TGI (DMS 114 small cell lung) was > 100 µM and the TGI (HOP-62 NSCLC) was > 100 µM. The TGI (786-0 renal) was > 100 µM, the TGI (M14 melanoma) was > 100 µM and the TGI (OVCAR-5 ovarian) was > 100 µM. For the same compound, the TGI (OVCAR-3 ovarian) was > 100 µM, the TGI (CCRF-CEM leukemia) was > 100 µM and the TGI (OVCAR-4 ovarian) was > 100 µM. For the same compound, the TGI (SNB-19 CNS) was > 100 µM, the TGI (A549 NSCLC) was > 100 µM and the TGI (MALME-3M melanoma) was > 100 µM. For the same compound, the TGI (ACHN renal) was > 100 µM, the TGI (NCI-H226 lung) was > 100 µM and the TGI (RXF-631 renal) was > 100 µM. For the same compound, the TGI (UACC-62 melanoma) was > 100 µM and the TGI (UACC-257 melanoma) was > 100 µM.

Source: PubChem BioAssay (NCI)
